US3937838A, “Orally active bronchospasmolytic compounds and their preparation” (priority 1966, dated 1976)
“Also recorded” adds a separate entry of the source. Read-outs that look alike come from different tables or passages of the source.

How the values were obtained:
[1] = Toxicity study in mice (Example 18); type: in vivo; details: mouse, in vivo, mice (NMRI, male), 24 hours, read-out: LD 50 + Standard error
Description: The toxicity was studied in mice (NMRI, male, 18-28 g) 24 hours after i.v. and oral administration. The animals were observed during five days. No further deaths occurred.

[2] = tested on: right auricle from the guinea pig; assay: Dual preparation test in vitro, effect on auricle (Example 5c); details: slow infusion, FIGS. 2-4
From the text: [This procedure is more fully described below in Example 5 (b)].
FIG. 2 illustrates the effect of epinephrine (EPE) and terbutaline on spirally cut trachea and right auricle from the guinea pig. Both preparations are dissected out from the same animal and run under identical experimental conditions;
Both preparations are dissected out from the same animal, and run under identical experimental conditions;
Both preparations are dissected out from the same animal and run under identical experimental conditions;
The relation between the heart stimulatory effect and bronchodilator effect was studied in vitro on auricle-trachea-preparation from the guinea pig in order to compare the effect on the heart and the effect on the bronchial muscle under identical experimental conditions. Both spontaneously bearing auricle and spirally-cut trachea were placed in the same bath in Krebs solution. Both preparations were taken from the same animal.
The compound to be tested was slowly infused into the bathing solution and the tension was measured for each of the auricle and trachael preparations.
In carrying out this dual preparation test, epinephrine was used as a reference. […] Infusion of epinephrine was made over a period of ten minutes. After washing and recovery, the test solution was infused in the same manner and the effect of the test compound was compared with the effect of epinephrine.
Referring more specifically to FIG. 2, the upper portion of each chart thereof represents the tension continuously recorded of the auricle preparation (shaded area 1 for the effect of epinephrine on the auricle, ref. no. 2 for the effect of terbutaline infused at a rate of 0.2 μg/min on the auricle, and ref. no. 3 for the effect of terbutaline infused at a rate of 0.375μg/min on the auricle).

[3] = tested on: bronchoconstriction by histamine aerosol; assay: Protecting effect against histamine aerosol in guinea pigs (Example 15); type: in vivo, guinea pig; details: Cavia porcellus, read-out: ED50 (protecting 50 percent of the animals for more than 4 minutes)
From the text: Male guinea pigs (200--300 g) were used. Bronchoconstriction was produced by letting the animals inhale a histamine aerosol.

isolated rabbit heart = assay: Effect on isolated heart, Langendorff preparation (Example 5d)
Description: The effect of the compound of the present invention was also studied on isolated rabbit heart (Langendorff preparation) the method used as described by Anden et al. (Acta Pharmacol. et Toxicol., 21 (1964) page 247). In this procedure, the isolated heart is mounted in a Krebs solution and the test compound is injected into it. Measurements are continuously recorded of the rate and force of contraction.
The tests using epinephrine establish a standard of comparison to evaluate subsequent test compounds in the same preparation.

[4] = tested on: sphincter of Oddi (choledochoduodenal sphincter); assay: Effect on sphincter of Oddi (Example 5e); type: in vivo, cat
Description: The effect of terbutaline on the choledochoduodenal sphincter of young, healthy cats was studied. Young animals weighing at least 2.0 kg were used. After being deprived of food but not water for 24 hours, they were anesthetized with pentobarbitol (40 mg/kg i.p.). The terminal portion of a common bile duct was isolated and cannulated toward the duodenum. The hepatic part of the bile duct was drained to prevent distention. The pressure was continuously recorded by the open tip technique. Details of the experimental set up have been published by Liedberg and Halabi [Acta. Chir. Scand. 136 (1970) page 208.] Heart rate was recorded on all experiments and blood pressure by arterial cannulation in some.
Referring to the upper curve of FIGS. 7 and 8, the heart rate is continuously recorded. Concurrent records are made in the middle curve and lower curve of the pressures measured respectively in the common bile duct and in the lower duodenum.
As a control in this test, the animal was also treated with 0.5 international units per kg of cholecystokinin (CCK).
In a second test of the effect of terbutaline and isoprenaline on the sphincter (see FIG. 8), the duodenal motility was measured without being affected by CCK.

[5] = tested on: histamine induced bronchoconstriction; assay: Bronchospasmolytic effect in vivo, Konzett and Rossler (Example 5b); set-up: species or system guinea pig; details: intravenous; histamine-induced bronchospasm; FIG. 1
Description: Orciprenaline and terbutaline were also tested in vivo according to the method described by Konzett and Rossler [Arch. Exp. Path. Pharmak. 195 (1940) page 71]. In the method of Konzett and Rossler, the animal is ventilated with a constant volume of air. When a certain pressure has been reached in the lung, the volume of air which is in excess of the pulmonary capacity will escape through the valve. This surplus of air is recorded. The testing compounds in the Konzett and Rossler method, bronchial contraction is provoked by administration of histamine. The histamine reduced the capacity of the airways, and the measured overflow increases. In order to see to what extent a test compound counteracts the histamine-induced bronchospasm, the animal is first given an injection of the test compound which is followed 3 minutes later by exposure to histamine.

bronchial asthma = assay: Clinical study in asthmatic patients (Example 6); type: in vivo, human
Description: All the patients were hospitalized for severe bronchial asthma. Before the patients were selected for the trial, spirometry was performed before and after isoprenaline inhalations to make sure that their obstruction was at least partly reversible by bronchodilating drugs. The tests were performed when the patients were in a relatively steady state of moderate asthmatic discomfort. Every morning during the trial control measurements of forced expiratory volume in one second (FEV1.0) were made. These values had to be less than 70% of the predicted normal value taking in consideration sex, age and heights. All the patients were under treatment of different drugs for their asthma. Other bronchodilating drugs were withdrawn at least 6 hours before the start of the measurements. Most of the patients were treated with steroids, antibiotics and expectorants before the start of the trial. This regimen was continued unchanged during the trial period.
Twenty-four took part in the study, 10 male and 14 female. Average age was 51 years (range 15-71 years), mean body weight 64 kg (range 44-88 kg.) and height 166 cm (range 150-187 cm).
The trial was performed as a double blind study during three consecutive days with the patients serving as their own control. […] The order of treatment was randomized according to the principle of Latin squares.
Lung function tests were made immediately before the administration of the tablets and after 1, 2, 3, 5 and 7 hours. FEV1.0 was measured using a Vitalograph spirometer. The highest value of three measurements on each occasion was used in the calculations. All the patients had been trained to perform the tests the day before the start of the trial. After 3 and 7 hours, the patients were questioned for side effects. The same, specially trained, nurse assisted throughout the whole investigation.
The "Student's" t-test was used for statistical evaluation of the results. The degree of significance for the differences is given as almost significant (p<0.05^x) significant (p<0.01^xx) and highly significant (p<0.001^xxx).

[6] = anesthetized cats, concurrent with sphincter effect

What does the source list for `CC(C)(C)NCC(O)c1cc(O)cc(O)c1` (racemic) [terbutaline, 1-(3',5'-dihydroxyphenyl)-2-(t-butylamino)-ethanol]?
LD50 at 24 h ([1]; iv): 52 ± 3 mg/kg; LD50 at 24 h ([1]; po): 3200 mg/kg; cardiac stimulation in relation to bronchodilator effect ([2]; both preparations in same bath): bronchodilation was obtained without any effect on the heart muscle preparation; effect on auricle (tension) ([2]; 0.375 μg/min where stated): little observable effect on the auricle; ED50 ([3]; 0.5 h, oral, 30 minutes before histamine): 0.4 mg/kg; ED50 ([3]; ip, 0.25 h, i.p., 15 minutes before histamine): 0.15 mg/kg; effect on isolated heart relative to epinephrine (isolated rabbit heart; cardiac/cardioaccelerating effect, FIGS. 5, 6): about one-fiftieth; effect on rate and force of isolated heart (isolated rabbit heart; injection, FIG. 5): weak; number of cats responding (the other five of 25) ([4]; 5-10 μg/kg): five; duodenal pressure / motility [4, 6]: only slightly affects; also recorded: minimum effects; heart rate [4, 6]: only slightly affects the heart rate; also recorded: minimum effects on heart rate; common bile duct pressure / sphincter relaxation ([4]; anesthetized cats, i.v., 1 μg/kg terbutaline in FIG. 7, FIG. 8): substantially reduces the common bile duct pressures; also recorded: relaxed the sphincter; number of cats responding (of 25) ([4]; dose range 0.5-4.0 μg/kg): 20 cats; bronchospasmolytic effect relative to orciprenaline [5]: twice; maximum effect and duration of effect versus orciprenaline (bronchial asthma; 5 mg terbutaline versus 20 mg orciprenaline, oral): superior to 20 mg of orciprenaline; circulatory effects (bronchial asthma; oral): negligible circulatory effects; time of maximal response (FEV1.0) (bronchial asthma; oral single dose): 3 h; duration of action (bronchial asthma; oral, presumably): > 5 h; increase of FEV1.0 (bronchial asthma; oral, terbutaline 5.0 mg, orciprenaline 20 mg, FIG. 9): clearcut increase of the spirometric values; also recorded: significantly greater than that of orciprenaline; also recorded: effective in relaxing bronchial obstruction in asthmatic patients
